In patent US8338568B2, “Chimeric PCSK9 proteins, cells comprising same, and assays using same” (Adaerata, Limited Partnership, priority 2006, dated 2012):

Columns and labels:
LDLR [1] = assay: Western blot of LDLR level in HEK293 cells co-transfected with LDLR and PCSK9 or PCSK9-TM-CT chimera; assay type: cell-based, human; conditions: HEK293 cells co-transfected with LDLR; compared to wild type PCSK9; FIG. 4
Method: (§1) Note that NH4Cl allows the rescue from degradation of an intermediate immunoreactive ˜105 kDa form of LDLR that is likely found in endosomes. The pIRES lanes represent the empty vector pIRES-2 either alone or co-transfected with LDLR (as indicated at the bottom of the panel) as controls;
as §1, with “HEK293 cells were transiently transfected with different PCSK9-chimera constructions (Benjannet et al., 2004). […] Cells were either treated (+) or not (−) with 5 mM NH4Cl for 24 h. Note” for “Note”, “controls.” for “controls;”

ApoER2 = assay: Western blot of overexpressed ApoER2 in cells co-transfected with PCSK9 constructs; assay type: cell-based; conditions: for degradation of ApoER2: overexpressed receptor, transient co-transfection, FIGS. 13 and 14
From the text: (§2) The triangle indicates the position in the gel of respectively ApoER2 (first panel), VLDLR (second panel) and LDLR (third panel). […] The PCSK9 Y38F is a mutant where the Tyr-sulfation of the prosegment is eliminated. The intracellular levels of PCSK9 (detected by a specific in-house polyclonal antibody made in rabbits against human PCSK9) are shown in the corresponding cell lysates in the lower panels;
The intracellular levels of PCSK9 (detected by a specific in house antibody against human PCSK9) are shown in the bottom panels;

VLDLR [2] = assay: Western blot of overexpressed VLDLR in CHOK1 cells co-transfected with PCSK9 constructs; assay type: cell-based; conditions: overexpressed receptor, transient co-transfection; FIG. 13
From the text: as §2

LDLR [3] = assay: Western blot of overexpressed LDLR in CHOK1 cells co-transfected with PCSK9 constructs; assay type: cell-based; conditions: overexpressed receptor, transient co-transfection; FIG. 13
From the text: as §2

LDLR [4] = assay: Western blot of endogenous LDLR level in HuH7 cells transiently transfected with PCSK9 constructs; assay type: cell-based, human; conditions: compared to pIRES empty vector, FIG. 10
From the text: Cells expressed either full length PCSK9 (FL-PCSK9), namely wild type sequence (WT), mutated R218S, RRRREL (SEQ ID NO: 5) or active site H226A; a truncated PCSK9 construct with the Cys/His rich domain (signal peptide fused to amino acid 455-692 of PCSK9 and ending with a V5 tag) (CHRD) or the empty vector control (pIRES-2). The levels of β-actin was used as control, as well as the level of PCSK9 intracellular proteins produced (detected by a V5-mAb);
Accordingly, the activity on the degradation of LDLR of wild type PCSK9, its R218S mutant, the RRRR218EL (SEQ ID NO: 5) variant, the active site mutant H226A and the Cys/His-rich domain of PCSK9 (aa 454-692 CHRD) was analyzed by Western blots in HuH7 cells (Benjannet et al., 2004) (FIG. 10).

VLDLR [5] = assay: Transgenic mice overexpressing PCSK9-V5 in hepatocytes: VLDLR in skeletal muscle, circulating LDL-cholesterol; assay type: in vivo, mouse
Method: The transgenic protein was tagged with a V5 at its C-terminus to differentiate it from the endogenous one. […] This is the first evidence that circulating PCSK9 can enhance the degradation of VLDLR in vivo and at distant sites away from those of its synthesis.
Immunohistochemistry of VLDLR (red) in skeletal mouse muscles of control Pcsk9+/+, Pcsk9−/− (Pcsk9 knockout) and transgenic mice (Tg-hPcsk9-V5). The nuclei were stained using TO-PRO-3 (blue; invitrogen). scale: […]; and
A transgenic mice specifically overexpressing PCSK9 in hepatocytes was generated. The transgene was under the control of the ApoE promoter and enhancer regulation. […] The transgenic protein was tagged with a V5 at its c-terminus to differentiate it from the endogenous one. […] Immunofluorescence and Confocal Microscopy analyses of the skeletal mouse muscles were performed using a rabbit polyclonal Ab:VLDLR (a74; 1:200). Immunofluorescence analyses were performed with a Zeiss™ LSM-510 confocal microscope. Confocal immunofluorescence microscopy was performed with a Nikon Eclipse™ TE2000-U laser-scanning microscope with 408, 488, and 543-nm laser lines. Images were processed with Adobe Photoshop™ CS2, version 9.0 (Adobe Systems). […] This is the first evidence that circulating PCSK9 can enhance the degradation of VLDLR in vivo. The decrease level of VLDLR in the transgenic mice overexpressing PCSK9 in the liver was also confirm by immunodetection of PCSK9 in extracts of skeletal muscle (see FIG. 21).

Furin = biological target: T1, Furin (Homo sapiens, UniProt P09958); assay: Cleavability of PCSK9 mutants by Furin in HEK293 cells (pulse-labelling, V5 immunoprecipitation); assay type: cell-based; conditions: for processing at Arg218 by endogenous Furin: 5 h pulse-labelling, FIG. 9; for processing by co-expressed Furin: co-transfection with Furin, FIG. 8
T1 construct: endogenous in cells; host or cells: HEK293
T1 sequence (P09958 108-794): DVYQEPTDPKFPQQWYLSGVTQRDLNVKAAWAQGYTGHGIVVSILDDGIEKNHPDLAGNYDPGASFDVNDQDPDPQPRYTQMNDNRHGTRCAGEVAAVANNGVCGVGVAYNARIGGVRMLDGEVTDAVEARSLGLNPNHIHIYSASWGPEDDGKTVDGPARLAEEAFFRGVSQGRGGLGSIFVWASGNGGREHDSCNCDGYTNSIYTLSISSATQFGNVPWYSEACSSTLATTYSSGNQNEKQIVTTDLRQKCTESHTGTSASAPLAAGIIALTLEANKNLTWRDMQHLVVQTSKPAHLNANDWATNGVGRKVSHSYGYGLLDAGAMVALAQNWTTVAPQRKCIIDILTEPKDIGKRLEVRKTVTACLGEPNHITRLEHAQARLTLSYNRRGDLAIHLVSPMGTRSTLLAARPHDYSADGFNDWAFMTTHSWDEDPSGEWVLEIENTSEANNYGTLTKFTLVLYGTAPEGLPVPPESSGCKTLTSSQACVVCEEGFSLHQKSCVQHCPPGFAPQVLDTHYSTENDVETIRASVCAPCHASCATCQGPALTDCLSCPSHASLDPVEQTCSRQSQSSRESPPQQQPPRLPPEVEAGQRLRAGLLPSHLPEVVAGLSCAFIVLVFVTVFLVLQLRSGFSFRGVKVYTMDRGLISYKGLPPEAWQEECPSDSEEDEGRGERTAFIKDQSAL
Method: Twenty four hours following the co-transfection of the PCSK9 natural mutants and each PC or with an empty vector control (pIRES). The cells were labeled with [^35S] [Met+Cys] for 5 h (P5h) and the cell lysates (Cells) and media analyzed as in FIG. 7. The stars point to lanes where either processing occurred (Furin and PC5A) or was inhibited by the presence of the mutation (R^218S with furin). Cleavage sites GTRFHS^218↓QA (SEQ ID NO: 17); GTRLHR^218↓QA (SEQ ID NO: 18);
[Met+Cys] as described in FIG. 7. The star emphasizes the effectiveness of the RRRR218EL (SEQ ID NO: […]) mutant to allow the complete processing of PCSK9 into the PCSK9-ΔN218 form by endogenous Furin. PCSK9 amino acid sequence in the vicinity of position 218 RFHR218QA (SEQ ID NO: 4) (WT); RFHR218EA (SEQ ID NO: 6) (Q219E); RFHR218EL (SEQ ID NO: 7) (QA219,220EL); RRRR218EL (SEQ ID NO: 5);
Was next tested the hypothesis that cleavage at Arg218 is performed by one or more basic amino acid PCs. Accordingly, wild type PCSK9 was co-expressed with all the convertases as well as with β-secretase BACE1 in HEK293 cells. Cells transiently transfected with vectors expressing hPCSK9-V5 and/or the different convertases (as indicated at the top of lanes) were pulse-labeled with ^35S-(Met+Cys) for 4 h and cell extracts (Cells) and media (Media) were immunoprecipitated with a V5 antibody and the precipitates were resolved by SDS/PAGE. […] The N-terminally truncated N2 product is thus referred to as PCSK9-ΔN218 (SEQ ID NO: 32) (PCSK9 lacking the first 218 amino acids; FIG. 5). […] The R218S mutation abrogates the Furin/PC5A cleavage at the sequence RFHR218.
Based on the crystal structure of Furin (Henrich et al., 2003) and the analysis of its many substrates (Seidah and Chretien, 1999), the best substrates of Furin would have the motif RX(R/K)R↓(E/D)L (SEQ ID NO: 115). This led the applicants to produce mutants of PCSK9 that should greatly enhance the ability of Furin to process this molecule. […] Notice the almost absence of prosegment co-immunoprecipitating with the PCSK9-ΔN218 form produced (FIG. 9), which would be predicted since such cleavage would remove the PCSK9 segment 153-218 (SEQ ID NO: 31), which contains the active site Asp^186.

basic aa-specific PCs = assay: Inhibition of PC processing of overexpressed human PCSK9 in HEK293 cells (pulse-labelling, V5 immunoprecipitation); assay type: cell-based; conditions: co-expression with PCSK9 in HEK293 cells; FIG. 7
Method: Twenty four hours following the co-transfection of PCSK9 with a PC or with an empty vector control (the pIRES-2 vector from Invitrogen), the cells were labeled with [^35S] [Met+Cys] for 4 h (P4h). The cell lysates (Cells) and media were immunoprecipitated with a V5-mAb and the immunoprecipitates resolved by SDS-PAGE, as described (Seidah et al., 2003). sFurin represents the soluble form of furin lacking the transmembrane-cytosolic tail (Decroly et al., 1996). The stars point to lanes where either processing occurred (with Furin and PC5A) or was inhibited (α1-PDX). From now on, N2 is defined herein as the N-terminal 218 amino acid truncated PCSK9 product (PCSK9-ΔN218). The pIRES lanes represent the empty vector pIRES-2 either alone or co-transfected with PCSK9 (as indicated at the bottom of the panel) as controls;
Was next tested the hypothesis that cleavage at Arg218 is performed by one or more basic amino acid PCs. Accordingly, wild type PCSK9 was co-expressed with all the convertases as well as with β-secretase BACE1 in HEK293 cells. Cells transiently transfected with vectors expressing hPCSK9-V5 and/or the different convertases (as indicated at the top of lanes) were pulse-labeled with ^35S-(Met+Cys) for 4 h and cell extracts (Cells) and media (Media) were immunoprecipitated with a V5 antibody and the precipitates were resolved by SDS/PAGE. […]

PCSK9-[TM-CT of Lamp1]: chimera of full-length human PCSK9 (1-692) fused to the transmembrane and cytosolic domains of Lamp1, SEQ ID NO: 24
degradation of LDLR (LDLR [1]): more powerful chimera to enhance the degradation of the LDLR | level of ApoER2 (ApoER2; CHOK1, Neuro2A, HuH7 and HEKL293 cells, FIG. 14): significantly decreased the level of ApoER2 in all cells tested | degradation of ApoER2 (ApoER2): highest efficacy of degradation | degradation of VLDLR (VLDLR [2]): highest efficacy of degradation | degradation of LDLR (LDLR [3]): highest efficacy of degradation

PCSK9-[TM-CT of LDLR]: chimera of full-length human PCSK9 (1-692) indirectly fused to the transmembrane and cytosolic domains of LDLR, SEQ ID NO: 20
degradation of LDLR (LDLR [1]): much more effective than the wild type (WT) PCSK9

PCSK9-[TM-CT of ACE2]: chimera of full-length human PCSK9 (1-692) fused to the transmembrane and cytosolic domains of ACE2, SEQ ID NO: 27
degradation of LDLR (LDLR [1]): much more effective than the wild type (WT) PCSK9

H226A: active site mutant of PCSK9, an inactive enzyme form that remains as zymogen in the ER [reference compound]
activity in enhancing the degradation of the LDLR (LDLR [4]): inactive

wild type PCSK9: human full-length PCSK9 (1-692), SEQ ID NO: 21
activity in enhancing the degradation of the LDLR (LDLR [4]): active in enhancing the degradation of the LDLR | degradation of ApoER2 (ApoER2): degraded | degradation of VLDLR (VLDLR [2]): degraded

PCSK9-V5: transgenic PCSK9 tagged with V5 at its C-terminus, overexpressed in mouse hepatocytes
circulating LDL-Cholesterol (VLDLR [5]; transgenic mice overexpressing PCSK9 in hepatocytes): quite elevated | level of VLDLR in skeletal muscle (VLDLR [5]; transgenic mice versus control littermates, immunofluorescence, FIG. 21): dramatically decreased | decrease of VLDLR level in muscle (VLDLR [5]; transgenic mice versus non-transgenic control littermates): at least 3 fold

RFHR218↓EA: PCSK9 mutant with motif RFHR218EA (SEQ ID NO: 6)
processing at Arg218 by endogenous Furin (Furin): intermediate Furin-cleavability

PCSK9-ΔN218: C-terminal fragment of the furin/PC5-cleaved PCSK9 (219-692), SEQ ID NO: 32
activity in enhancing the degradation of the LDLR (LDLR [4]): inactive form of PCSK9

RFHR218↓EL: PCSK9 mutant with motif RFHR218EL (SEQ ID NO: 7)
processing at Arg218 by endogenous Furin (Furin): intermediate Furin-cleavability

R218S: natural PCSK9 mutant Arg218-to-Ser, hypercholesterolemia-associated, Furin/PC5A-resistant
activity in enhancing the degradation of the LDLR (LDLR [4]): active in enhancing the degradation of the LDLR | processing by co-expressed Furin (Furin): can no longer process

F216L: natural PCSK9 mutant Phe216-to-Leu, hypercholesterolemia-associated
processing by co-expressed Furin (Furin): cleaves to a lesser extent

α1-PDX: modified serpin which inhibits most of the basic aa-specific PCs
inhibition of processing of PCSK9 into PCSK9-ΔN218 (basic aa-specific PCs): completely inhibits such processing into PCSK9-ΔN218

RRRR^218EL: PCSK9 variant with wild type RFHR218QA replaced by optimal Furin-recognition sequence RRRR218EL (SEQ ID NO: 5)
activity in enhancing the degradation of the LDLR (LDLR [4]): inactive | processing at Arg218 by endogenous Furin (Furin): completely process

B1: CHRD: truncated PCSK9 construct: signal peptide fused to the Cys/His rich domain (amino acid 455-692) with V5 tag (protein)
chain: LFCRTVWSAHSGPTRMATAVARCAPDEELLSCSSFSRSGKRRGERMEAQGGKLVCRAHNAFGGEGVYAIARCCLLPQANCSVHTAPPAEASMGTRVHCHQQGHVLTGCSSHWEVEDLGTHKPPVLRPRGQPNQCVGHREASIHASCCHAPGLECKVKEHGIPAPQEQVTVACEEGWTLTGCSALPGTSHVLGAYAVDNTCVVRSRDVSTTGSTSEGAVTAVAICCRSRHLAQASQELQ
modifications: left off: small tags and cut ends
notes: truncated PCSK9 construct: signal peptide fused to the Cys/His rich domain (amino acid 455-692) with V5 tag
activity in enhancing the degradation of the LDLR (LDLR [4]): inactive
